# How the values were obtained:
# Bcl-2 = Bcl-2 (Homo sapiens, UniProt P10415); test: Bcl-2 binding affinity analysis (fluorescence polarization binding assay); conditions: read-out: BcI2 (Ki, Bcl-2 binding affinity)
# Source text: (§1) Bcl-2 and Bcl-xL binding may be determined using a variety of known methods. One such assay is a sensitive and quantitative in vitro binding assay using fluorescence polarization (FP) described by Wang, J.-L.; Zhang, Z-J.; Choksi, S.; Sjam. S.; Lu, Z.; Croce, C. M.; Alnemri, E. S.; Komgold, R.; Huang, Z. Cell permeable Bcl-2 binding peptides: a chemical approach to apoptosis induction in tumor cells. Cancer Res. 2000, 60, 1498-1502).
# (§2) Bcl-2 and Bcl-xL binding affinity analysis data is presented below for various compounds of the invention.
# Bcl-xL = Bcl-xL (Homo sapiens, UniProt Q07817); test: Bcl-xL binding affinity analysis (fluorescence polarization binding assay); conditions: read-out: BcI-XI (Ki, Bcl-xL binding affinity)
# Chain of Bcl-xL (Q07817 whole entry): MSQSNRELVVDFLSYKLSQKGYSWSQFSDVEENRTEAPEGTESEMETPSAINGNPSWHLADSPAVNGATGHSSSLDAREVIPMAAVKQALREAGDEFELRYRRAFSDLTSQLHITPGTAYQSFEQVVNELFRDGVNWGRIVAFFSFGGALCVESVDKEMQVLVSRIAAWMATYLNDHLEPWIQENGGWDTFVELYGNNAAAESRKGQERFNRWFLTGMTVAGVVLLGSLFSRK
# Source text: as §1, §2
# Chain of Bcl-2 (P10415 whole entry): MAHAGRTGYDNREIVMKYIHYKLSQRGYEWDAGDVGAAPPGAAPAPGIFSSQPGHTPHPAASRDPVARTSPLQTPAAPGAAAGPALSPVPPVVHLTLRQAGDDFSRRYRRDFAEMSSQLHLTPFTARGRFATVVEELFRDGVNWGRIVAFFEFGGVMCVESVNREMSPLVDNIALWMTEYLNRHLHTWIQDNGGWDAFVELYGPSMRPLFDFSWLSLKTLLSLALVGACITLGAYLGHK
Structure (SMILES),Ki (Bcl-2) [nM],Ki (Bcl-xL) [nM]
COc1c(CN2O[C@@H](CO)[C@@H]([C@H](C)O)[C@H]2C(=O)N[C@H]2C[C@H]3C[C@@H]([C@@H]2C)C3(C)C)cccc1-c1cc(NCC(C)C)cc(C(=O)N[C@@H](CC(C)C)CN(C)C)c1 [Compound 270],1 to 5,1000 to 5000
COc1c(CN2O[C@@H](CN)[C@@H]([C@H](C)O)[C@H]2C(=O)N[C@H]2C[C@H]3C[C@@H]([C@@H]2C)C3(C)C)cccc1-c1cc(C(=O)N[C@@H](CC(C)C)CN(C)C)cc(N(C)C)c1 [Compound 72],< 1,< 1000
COc1c(CN2O[C@@H](CO)[C@@H]([C@H](C)O)[C@H]2C(=O)N[C@H]2C[C@H]3CC([C@@H]2C)C3(C)C)cccc1-c1cc(C(=O)N[C@@H](Cc2ccccc2)CN(C)C)cc(N2CCC[C@@H]2CO)c1 [Compound 296],< 1,< 1000
COc1c(CN2O[C@@H](CN)[C@@H]([C@H](C)O)[C@H]2C(=O)N[C@H]2C[C@H]3C[C@@H]([C@@H]2C)C3(C)C)cccc1-c1cc(C(=O)N[C@H](CN(C)C)[C@H](O)c2ccccc2)cc(N(C)C)c1 [Compound 272],< 1,1000 to 5000
COc1c(CN2O[C@@H](CO)[C@@H]([C@H](C)O)[C@H]2C(=O)N[C@H]2C[C@H]3C[C@@H]([C@@H]2C)C3(C)C)cccc1-c1cc(C(=O)N[C@@H](CC(C)C)CN(C)C)cc(N2CCCCC2)c1 [Compound 268],1 to 5,1000 to 5000
CCNc1cc(C(=O)N[C@@H](CC(C)C)CN(C)C)cc(-c2cccc(CN3O[C@@H](CO)[C@@H]([C@H](C)O)[C@H]3C(=O)N[C@H]3C[C@H]4C[C@@H]([C@@H]3C)C4(C)C)c2OC)c1 [Compound 269],< 1,< 1000
COc1c(CN2O[C@@H](CO)[C@@H]([C@H](C)O)[C@H]2C(=O)N[C@H]2C[C@H]3C[C@@H]([C@@H]2C)C3(C)C)cccc1-c1cc2c(c(C(=O)N[C@H](CN(C)C)CC(C)(C)C)c1)OC(C)(C)C2 [Compound 196],< 1,< 1000
CNC(=O)c1cc(-c2cccc(CN3O[C@@H](CN(CC(C)C)CC(C)C)[C@@H]([C@H](C)O)[C@H]3C(=O)N[C@H]3C[C@H]4C[C@@H]([C@@H]3C)C4(C)C)c2OC)cc(N(C)C)c1 [Compound 98],> 9,5000 to 10000
COc1c(CN2O[C@@H](CN)[C@@H]([C@H](C)O)[C@H]2C(=O)N[C@H]2C[C@H]3C[C@@H]([C@@H]2C)C3(C)C)cccc1-c1cc(C(=O)N[C@@H](Cc2ccccc2)CN(C)C)cc(N(C)C)c1 [Compound 54],1 to 5,> 10000
CCOc1c(CN2O[C@@H](CO)[C@@H]([C@H](C)O)[C@H]2C(=O)N[C@H]2C[C@H]3C[C@@H]([C@@H]2C)C3(C)C)cccc1-c1cc(C(=O)N[C@@H](Cc2cccs2)CN(C)C)cc(N(C)C)c1 [Compound 25],< 1,< 1000
COc1c(CN2O[C@@H](CO)[C@@H]([C@H](C)O)[C@H]2C(=O)N[C@H]2C[C@H]3C[C@@H]([C@@H]2C)C3(C)C)cccc1-c1cc(C(=O)N(C)[C@@H](Cc2ccccc2)CN(C)C)cc(N(C)C)c1 [Compound 311],< 1,< 1000
CNC(=O)O[C@@H](C)[C@@H]1[C@H](CN)ON(Cc2cccc(-c3cc(C(=O)NC)cc(N(C)C)c3)c2OC)[C@@H]1C(=O)N[C@H]1C[C@H]2C[C@@H]([C@@H]1C)C2(C)C [Compound 93],> 9,> 10000

# Now from value to molecule:
Ki (Bcl-2) [nM],Ki (Bcl-xL) [nM],Structure (SMILES)
5 to 9,5000 to 10000,CNC(=O)c1cc(-c2cccc(CN3O[C@@H](CNCC4CC4)[C@@H]([C@H](C)O)[C@H]3C(=O)N[C@H]3C[C@H]4C[C@@H]([C@@H]3C)C4(C)C)c2OC)cc(N(C)C)c1 [Compound 96]
1 to 5,1000 to 5000,COc1c(CN2O[C@@H](CO)[C@@H]([C@H](C)O)[C@H]2C(=O)N[C@H]2C[C@H]3C[C@@H]([C@@H]2C)C3(C)C)cccc1-c1cc(C(=O)N[C@@H](CN(C)C)CS(=O)(=O)C(C)(C)C)cc(N(C)C)c1 [Compound 170]
< 1,1000 to 5000,CCN1CCC[C@@H]1CNC(=O)c1cc(-c2cccc(CN3O[C@@H](CN)[C@@H]([C@H](C)O)[C@H]3C(=O)N[C@H]3C[C@H]4C[C@@H]([C@@H]3C)C4(C)C)c2OC)cc(N(C)C)c1 [Compound 60]
< 1,< 1000,CCN1CCC[C@@H]1CNC(=O)c1cc(-c2cccc(CN3O[C@@H](CO)[C@@H]([C@H](C)O)[C@H]3C(=O)N[C@H]3C[C@H]4C[C@@H]([C@@H]3C)C4(C)C)c2OC)cc(N(C)C)c1 [Compound 312]
< 1,< 1000,COc1c(CN2O[C@@H](CO)[C@@H]([C@H](C)O)[C@H]2C(=O)N[C@H]2C[C@H]3C[C@@H]([C@@H]2C)C3(C)C)cccc1-c1cc(C(=O)N[C@H](CN(C)C)CC(C)(C)C)cc(N(C)C)c1 [Compound 1]

# Source: patent US8178690B2, “Compounds and methods for inhibiting the interaction of BCL proteins with binding partners” (Infinity Pharmaceuticals, Inc., priority 2006, dated 2012)
